Assay results from PubChem BioAssay (NCI).
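Interpolation was linear, between the two tested concentrations surrounding the appropriate level; five concentrations were tested over 48 hours in 96-well plates. GI50 = concentration required for 50% inhibition of growth. TGI: concentration producing complete growth inhibition.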

Experiments:
Assay in all cases: NCI tumour cell line growth inhibition, 48 h
[1] = tested on: BT-549 breast
[2] = tested on: NCI-H23 lung
[3] = tested on: LOX IMVI melanoma
[4] = tested on: OVCAR-8 ovarian
[5] = tested on: NCI/ADR-RES ovarian
[6] = tested on: NCI-H522 lung
[7] = tested on: HT29 colon
[8] = tested on: HCT-116 colon
[9] = tested on: SNB-75 CNS
[10] = tested on: HS 578T breast
[11] = tested on: PC-3 prostate
[12] = tested on: SK-MEL-2 melanoma
[13] = tested on: RPMI-8226 leukemia
[14] = tested on: SK-MEL-28 melanoma
[15] = tested on: U251 CNS
[16] = tested on: SF-295 CNS
[17] = tested on: HCC-2998 colon
[18] = tested on: COLO 205 colon
[19] = tested on: MDA-MB-231 breast
[20] = tested on: SN12C renal
[21] = tested on: HCT-15 colon
[22] = tested on: KM12 colon
[23] = tested on: IGROV1 ovarian
[24] = tested on: 786-0 renal
[25] = tested on: OVCAR-3 ovarian
[26] = tested on: SK-MEL-5 melanoma
[27] = tested on: SNB-19 CNS
[28] = tested on: K-562 leukemia
[29] = tested on: DU-145 prostate
[30] = tested on: SW-620 colon
[31] = tested on: HOP-92 NSCLC
[32] = tested on: MDA-MB-435
[33] = tested on: SF-268 CNS
[34] = tested on: MOLT-4 leukemia
[35] = tested on: UACC-62 melanoma
[36] = tested on: CAKI-1 renal
[37] = tested on: T-47D breast
[38] = tested on: UO-31 renal
[39] = tested on: SF-539 CNS
[40] = tested on: OVCAR-4 ovarian
[41] = tested on: A498 renal
[42] = tested on: CCRF-CEM leukemia
[43] = tested on: HOP-62 NSCLC
[44] = tested on: TK-10 renal
[45] = tested on: A549 NSCLC
[46] = tested on: OVCAR-5 ovarian
[47] = tested on: NCI-H460 lung
[48] = tested on: MCF7 breast
[49] = tested on: M14 melanoma
[50] = tested on: EKVX NSCLC
[51] = tested on: SK-OV-3 ovarian
[52] = tested on: ACHN renal

Work on CN(C)CCNC(=O)c1ccc(Nc2nc3ccccc3c3occc23)cc1 yielded a GI50 [1] of 5.69 µM, a TGI [1] of 23.9 µM and a GI50 [2] of 8.36 µM. For the same molecule, the TGI [2] was 21.3 µM, the GI50 [3] was 1.84 µM and the TGI [3] was 3.66 µM. It also gave a GI50 [4] of 2.08 µM, a TGI [4] of 7.96 µM and a GI50 [5] of 8.92 µM. It also gave a TGI [5] of 22.6 µM, a GI50 [6] of 13.3 µM and a TGI [6] of 29.8 µM. For the same molecule, the GI50 [7] was 6.31 µM, the TGI [7] was over 100 µM and the GI50 [8] was 1.66 µM. The TGI [8] was 3.02 µM, the GI50 [9] was 10.5 µM and the TGI [9] was 25.5 µM. For the same molecule, the GI50 [10] was 18.6 µM, the TGI [10] was 42.1 µM and the GI50 [11] was 3 µM. The TGI [11] was 14.3 µM, the GI50 [12] was 9.71 µM and the TGI [12] was 26.6 µM. It also gave a GI50 [13] of 2.9 µM, a TGI [13] of 9.05 µM and a GI50 [14] of 16.5 µM. For the same molecule, the TGI [14] was 44 µM, the GI50 [15] was 2.45 µM and the TGI [15] was 6.35 µM. For the same molecule, the GI50 [16] was 1.88 µM, the TGI [16] was 4.18 µM and the GI50 [17] was 1.62 µM. The TGI [17] was 3.07 µM, the GI50 [18] was 22.6 µM and the TGI [18] was 59.7 µM. It also gave a GI50 [19] of 1.54 µM, a TGI [19] of 4.14 µM and a GI50 [20] of 2.5 µM. For the same molecule, the TGI [20] was 7.87 µM, the GI50 [21] was 2.12 µM and the TGI [21] was 4.75 µM. For the same molecule, the GI50 [22] was 1.89 µM, the TGI [22] was 4.15 µM and the GI50 [23] was 2.18 µM. For the same molecule, the TGI [23] was 10.3 µM, the GI50 [24] was 2.57 µM and the TGI [24] was 6.8 µM. It also gave a GI50 [25] of 2.4 µM, a TGI [25] of 7.87 µM and a GI50 [26] of 3.96 µM. It also gave a TGI [26] of 14 µM, a GI50 [27] of 18.8 µM and a TGI [27] of 39 µM. It also gave a GI50 [28] of 4.29 µM, a TGI [28] of 17.1 µM and a GI50 [29] of 6.94 µM. It also gave a TGI [29] of 20.7 µM, a GI50 [30] of 5.96 µM and a TGI [30] of 25.8 µM. The GI50 [31] was 1.8 µM, the TGI [31] was 9.84 µM and the GI50 [32] was 1.95 µM. For the same molecule, the TGI [32] was 3.94 µM, the GI50 [33] was 63.7 µM and the TGI [33] was over 100 µM. The GI50 [34] was 2.75 µM, the TGI [34] was 5.17 µM and the GI50 [35] was 1.35 µM. For the same molecule, the TGI [35] was 2.71 µM, the GI50 [36] was 2.18 µM and the TGI [36] was 4.95 µM. The GI50 [37] was 16.4 µM, the TGI [37] was 39.8 µM and the GI50 [38] was 3.82 µM. It also gave a TGI [38] of 16.2 µM, a GI50 [39] of 1.83 µM and a TGI [39] of 3.7 µM. It also gave a GI50 [40] of 26.7 µM, a TGI [40] of over 100 µM and a GI50 [41] of 12.3 µM. It also gave a TGI [41] of 28.1 µM, a GI50 [42] of 3.04 µM and a TGI [42] of 8.74 µM. For the same molecule, the GI50 [43] was 3.35 µM, the TGI [43] was 8.16 µM and the GI50 [44] was 1.06 µM. For the same molecule, the TGI [44] was 2.54 µM, the GI50 [45] was 4.08 µM and the TGI [45] was 16.1 µM. It also gave a GI50 [46] of 11.8 µM, a TGI [46] of 24.6 µM and a GI50 [47] of 28.5 µM. The TGI [47] was over 100 µM, the GI50 [48] was 49.3 µM and the TGI [48] was over 100 µM. For the same molecule, the GI50 [49] was 1.7 µM, the TGI [49] was 3.15 µM and the GI50 [50] was 11.7 µM. It also gave a TGI [50] of 28.7 µM, a GI50 [51] of 19.3 µM and a TGI [51] of 37.2 µM. For the same molecule, the GI50 [52] was 2.54 µM and the TGI [52] was 7.56 µM.
